In patent US5610174A, “Use of α1A -selective adrenoceptor agonists for the treatment of urinary incontinence” (priority 1995, dated 1997):
Like-named read-outs stand apart in the source and are kept apart here.

What was measured:
human α1C adrenoceptor [1] = molecular target: T1, human α1C adrenoceptor (Homo sapiens, UniProt P35348); assay: biochemical; format: binding
T1 sequence (P35348 1-466): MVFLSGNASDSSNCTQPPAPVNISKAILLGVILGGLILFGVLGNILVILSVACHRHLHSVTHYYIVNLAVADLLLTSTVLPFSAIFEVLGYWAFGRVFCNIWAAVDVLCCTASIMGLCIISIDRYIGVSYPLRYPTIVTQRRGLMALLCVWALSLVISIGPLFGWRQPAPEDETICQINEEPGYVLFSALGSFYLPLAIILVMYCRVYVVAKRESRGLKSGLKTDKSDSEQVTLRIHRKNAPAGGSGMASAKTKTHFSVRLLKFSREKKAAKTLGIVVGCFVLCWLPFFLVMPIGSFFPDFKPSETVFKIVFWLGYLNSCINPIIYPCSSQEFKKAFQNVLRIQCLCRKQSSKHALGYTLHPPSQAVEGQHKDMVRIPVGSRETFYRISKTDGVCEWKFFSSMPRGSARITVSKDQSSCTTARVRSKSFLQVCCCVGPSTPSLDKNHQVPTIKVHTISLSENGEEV
Procedure: (§1) These cell lines were prepared by transfecting the cloned cDNA or cloned genomic DNA or constructs containing both genomic DNA and cDNA encoding the human α-adrenoceptors as follows:
The construct involved ligating three partial overlapping fragments: a 5' 0.6 kb HincII genomic clone, a central 1.8 EcoRI hippocampal cDNA clone, and a 3' 0.6 Kb PstI genomic clone. The hippocampal cDNA fragment overlaps with the 5' and 3' genomic clones so that the HincII and PstI sites at the 5' and 3' ends of the cDNA clone, respectively, were utilized for ligation. This full-length clone was cloned into the KpnI site of the expression vector, using the 5' and 3' KpnI sites of the fragment, derived from vector (i.e., pBluescript) and 3'-untranslated sequences, respectively. Stable cell lines were obtained as described above.
(§2) Transfected cells from culture flasks were scraped into 5 ml of 5 mM Tris-HCl, 5 mM EDTA, pH 7.5, and lysed by sonication. The cell lysates were centrifuged at 1000 rpm. for 5 min at 4° C., and the supernatant was centrifuged at 30,000 ×g for 20 min at 4° C. The pellet was suspended in 50 mM Tris-HCl , 1 mM MgCl2, and 0.1% ascorbic acid at pH 7.5. […] The reaction was stopped by filtration through GF/B filters using a cell harvester.

human α1A adrenoceptor [2] = molecular target: T2, human α1A adrenoceptor (Homo sapiens, UniProt P25100); assay: cell-based; format: cell-based; conditions: for Emax: read-out: intrinsic activity (i.a.) α1A; for stimulation of inositol phosphate production, α1A: result in words
T2 sequence (P25100 1-572): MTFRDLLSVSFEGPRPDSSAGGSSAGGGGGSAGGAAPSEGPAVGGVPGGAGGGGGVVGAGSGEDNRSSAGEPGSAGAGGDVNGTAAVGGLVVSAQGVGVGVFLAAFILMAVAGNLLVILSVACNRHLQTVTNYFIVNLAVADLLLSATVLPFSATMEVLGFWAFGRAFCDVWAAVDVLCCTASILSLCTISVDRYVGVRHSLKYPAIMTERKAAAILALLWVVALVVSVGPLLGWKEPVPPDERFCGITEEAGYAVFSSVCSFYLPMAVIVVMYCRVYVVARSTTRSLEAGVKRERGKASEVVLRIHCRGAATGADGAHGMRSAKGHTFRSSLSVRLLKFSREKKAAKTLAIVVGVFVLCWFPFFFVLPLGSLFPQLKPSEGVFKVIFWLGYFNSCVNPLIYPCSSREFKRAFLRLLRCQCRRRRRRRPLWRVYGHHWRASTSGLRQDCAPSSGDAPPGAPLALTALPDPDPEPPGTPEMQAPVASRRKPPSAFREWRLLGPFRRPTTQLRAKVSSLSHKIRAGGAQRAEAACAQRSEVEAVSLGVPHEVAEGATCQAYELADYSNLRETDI
Procedure: (§3) α1 -Adrenoceptor-Mediated Phosphoinositide Accumulation in Cultured Cell Lines
(§4) The agonist activity of test compounds was assayed by measuring their ability to generate phosphoinositide production in cells stably transfected with each of the three cloned human α1 -adrenoceptor subtypes. Cells were plated in 96-well plates and grown to confluence. The day before the assay the growth medium was changed to 100 μl of medium containing 1% serum and 0.5 μCi [^3 H] myo-inositol, and the plates were incubated overnight in a CO2 incubator (5% CO2 at 37° C.). Immediately before the assay, the medium was removed and replaced by 200 μl of PBS containing 10 mM LiCl, and the cells were equilibrated with the new medium for 20 min. During this interval cells were also equilibrated with the antagonist, added as 10 μl aliquot of a 20-fold concentrated solution in PBS.
(§5) The [^3 H] inositol-phosphate (IP) accumulation was started by adding 10 μl of a solution containing the agonist. To the first well 10 μl were added to measure basal accumulation, and 11 different concentrations of agonist were assayed in the following 11 wells of each plate row. All assays were performed in duplicate by repeating the same additions in two consecutive plate rows. The plates were incubated in a CO2 incubator for 1 hr. The reaction was terminated by adding 15 μl of 50% (v/v) trichloroacetic acid (TCA), followed by a 40 min incubation at 4° C.
(§6) After neutralizing TCA with 40 μl of 1 M Tris, the content of the wells was transferred to a Multiscreen HV filter plate (Millipore) containing Dowex AG1-X8 (200-400 mesh, formate form). The filter plates were prepared adding 200 μl of Dowex AG1-X8 suspension (50% v/v, water:resin) to each well. The filter plates were placed on a vacuum manifold to wash or eluted the resin bed. Each well was washed 2 times with 200 μl of water, followed by 2×200 μ of 5 mM sodium tetraborate/60 mM ammonium formate. The [3H] IPs were eluted into empty 96-well plates with 200 μl of 1.2 M ammonium formate/0.1 formic acid. The content of the wells was added to 3 mls of scintillation cocktail, and the radioactivity was determined by liquid scintillation counting.

human α1C adrenoceptor [3] = molecular target: T1, human α1C adrenoceptor; assay: cell-based; format: cell-based; conditions: for Emax: read-out: intrinsic activity (i.a.) α1C
Procedure: as §3, §4, §5, §6

human α1A adrenoceptor [4] = molecular target: T2, human α1A adrenoceptor; assay: biochemical; format: binding
Procedure: as §1
The cells were grown, in a controlled environment (37° C., 5% CO2), as monolayers in Dulbecco's modified Eagle's Medium (GIBCO, Grand Island, N.Y.) containing 25 mM glucose and supplemented with 10% bovine calf serum, 100 units/ml penicillin g, and 100 μg/ml streptomycin sulfate.
as §2

[5] = agonist, phosphoinositide accumulation, read-out: pEC50 α1C (converted)
[6] = relative to reference full agonist (e.g., norepinephrine = unity)
[7] = Table 2, antagonists, versus 3H-prazosin
[8] = agonist, phosphoinositide accumulation, read-out: pEC50 α1A (converted)
[9] = Table 3, agonists, read-out: pKi α1A (converted)

SMILES	Ki (human α1C adrenoceptor [1])	EC50 (human α1A adrenoceptor [2])	Emax (human α1A adrenoceptor [2])	EC50 (human α1C adrenoceptor [3]; [5])	Emax (human α1C adrenoceptor [3]; [6])	Ki (human α1A adrenoceptor [4])	further results
C[C@H](N)[C@H](O)c1ccccc1 [(-)-norephedrine]	15.8 µM	15.8 µM	30%	50.1 µM	40%	25.1 µM	
CNCCc1ccc(O)c(NS(C)(=O)=O)c1 [SK&F 102652]			10%				stimulation of inositol phosphate production, α1A (human α1A adrenoceptor [2]): virtually inactive; stimulation of inositol phosphate production, α1C (human α1C adrenoceptor [3]): fully stimulate; Emax (human α1C adrenoceptor [3]): 110%
COc1cc2c(cc1OC)CN(c1cc(N)c3cc(OC)c(OC)cc3n1)CC2 [Abanoquil, 2-(6,7-Dimethoxy-3,4-dihydro-1H-isoquinolin-2-yl)-6,7-dimethoxyquinolin-4-ylamine hemifumarate hydrate]							pKI (antagonist affinity, 3H-prazosin binding) hα1C (human α1C adrenoceptor [1]; [7]): 10.4; pKI (antagonist affinity, 3H-prazosin binding) hα1A (human α1A adrenoceptor [4]; [7]): 10.4
CS(=O)(=O)Nc1c(O)ccc2c1CCCC2C1=NCCN1 (racemic) [Compound A-61603, (±)-N-[5-(4,5-Dihydro-1H-imidazol-2-yl)-2-hydroxy-5,6,7,8-tetra-hydronaphthalen-1-yl]methanesulfonamide]					120%		EC50 (human α1A adrenoceptor [2]; [8]): 25.1 µM; Emax (human α1A adrenoceptor [2]; [6]): 10%; stimulation of inositol phosphate production, α1A (human α1A adrenoceptor [2]): virtually inactive; stimulation of inositol phosphate production, α1C (human α1C adrenoceptor [3]; result in words): fully stimulate; Ki (human α1A adrenoceptor [4]; [9]): 12.6 µM
CN[C@@H](C)[C@H](O)c1ccccc1 [(-)-ephedrine]	25.1 µM	100 µM	10%	100 µM	10%	50.1 µM	
CNC[C@H](O)c1cccc(O)c1 [(-)-phenylephrine]					90%	3.98 µM	Emax (human α1A adrenoceptor [2]; [6]): 70%
COc1ccc(SC)c2c1C[C@@H]1[C@@H](C2)OCCN1C (relative stereo) [SDZ NVI-085, (±)-trans-4-Methyl-6-methoxy-9-thiomethoxy-3,4,4a, 5,10,10a-hexahydro-2H-naphtho[2,3-b][1,4]oxazine]			0%	0.398 µM	110%		Ki (human α1C adrenoceptor [1]; Table 3, agonists, read-out: pKi α1C (converted)): 1.26 µM; EC50 (human α1A adrenoceptor [2]; [8]): > 100 µM; Ki (human α1A adrenoceptor [4]; [9]): 2 µM
COc1ccccc1N1CCN(CCCNc2c(C)c(=O)n(C)c(=O)n2C)CC1 [Compound 5-MU]							Ki (human α1C adrenoceptor [1]; Table 2, antagonists, versus 3H-prazosin, read-out: pKI (antagonist affinity, 3H-prazosin binding) hα1C (converted)): 0.002 µM; Ki (human α1A adrenoceptor [4]; Table 2, antagonists, versus 3H-prazosin, read-out: pKI (antagonist affinity, 3H-prazosin binding) hα1A (converted)): 0.0158 µM
COc1ccc(OC)c(C(O)CN)c1 (racemic) [ST-1059, (±)-2-Amino-1-(2, 5 dimethoxyphenyl) ethanol]	7.94 µM	1.58 µM	10%		90%	7.94 µM	EC50 (human α1C adrenoceptor [3]): 2 µM
